In general, IC50 refers to the concentration that gives 50% inhibition. One may read the ΔTm as the change in melting temperature against a reference sample.

This is an account of results in ChEMBL document CHEMBL6114966, “Discovery of maleimide derivatives as m6A demethylase ALKBH5 inhibitors” (Bioorg Med Chem, 2025).

SMILES strings stand for the structures. Activity calls are given as the source filed them. The rule behind the calls is not given here.

Test [1] deals with T1, RNA demethylase ALKBH5 (Homo sapiens, UniProt Q6P6C2). The test can be described thus: Inhibition of ALKBH5 (unknown origin) using 5'-ATTGTCA(m6A)CAGCAGA-FAM-3' as substrate measured after 30 mins by fluorescence polarization assay.
The target of test [2] is T1, RNA demethylase ALKBH5. The test can be described thus: Inhibition of ALKBH5 (unknown origin) at 20 to 100 uM using 5'-TAGACATTGCCATTCTCGATAGG (m6A) TCCGGTCAAACCTAGAC GAATTCCA-3' as substrate measured after 2 hrs in presence of 2-OG by PAGE based restriction enzyme digestion assay. The conditions noted are these: dose 20-100 µM.
For test [3], the target named is T1, RNA demethylase ALKBH5. The test can be described thus: Inhibition of ALKBH5 (unknown origin) using 5'-TAGACATTGCCATTCTCGATAGG (m6A) TCCGGTCAAACCTAGAC GAATTCCA-3' as substrate measured after 2 hrs in presence of 2-OG by PAGE based restriction enzyme digestion assay.
In test [4] the target is T1, RNA demethylase ALKBH5. The test can be described thus: Binding affinity to ALKBH5 (unknown origin) assessed as change in melting temperature at 25 uM measured after 30 mins by thermal shift assay.
Test [5] deals with T1, RNA demethylase ALKBH5. The test can be described thus: Binding affinity to ALKBH5 (unknown origin) assessed as change in melting temperature at 100 uM measured after 30 mins by thermal shift assay.
Test [6] addresses T1, RNA demethylase ALKBH5. Nature of the test: Binding affinity to ALKBH5 (unknown origin) assessed as change in melting temperature at 50 uM measured after 30 mins by thermal shift assay.
Test [7] deals with T1, RNA demethylase ALKBH5. Nature of the test: Inhibition of ALKBH5 in human MV4-11 cells assessed as upregulation of p21 mRNA expression measured after 48 hrs by RT-qPCR analysis. The class given is cell-based. The conditions noted are these: dose 10-40 µM.
Test [8] deals with T2, Alpha-ketoglutarate-dependent dioxygenase FTO (Homo sapiens, UniProt Q9C0B1). Nature of the test: Inhibition of FTO (unknown origin) using 5'-TAGACATTGCCATTCTCGATAGG (m6A) TCCGGTCAAACCTAGAC GAATTCCA-3' as substrate measured after 2 hrs in presence of 2-OG by PAGE based restriction enzyme digestion assay.
The target of test [9] is T1, RNA demethylase ALKBH5. Nature of the test: Binding affinity to ALKBH5 (unknown origin) by 1H NMR STD analysis.
For test [10], the target named is T1, RNA demethylase ALKBH5. The test can be described thus: Inhibition of ALKBH5 in human MV4-11 cells assessed as increase in intracellular m6A level by dot blot assay. Type of test: cell-based. The conditions noted are these: dose 20-40 µM.
The target in test [11] is T2, Alpha-ketoglutarate-dependent dioxygenase FTO. The test can be described thus: Inhibition of FTO (unknown origin) at 25 to 200 uM using 5'-TAGACATTGCCATTCTCGATAGG (m6A) TCCGGTCAAACCTAGAC GAATTCCA-3' as substrate measured after 2 hrs in presence of varying levels of 2-OG by PAGE based restriction enzyme digestion assay. The conditions noted are these: dose 25-200 µM.

Test [12] concerns the target T1, RNA demethylase ALKBH5. Nature of the test: Inhibition of ALKBH5 in human MV4-11 cells assessed as down regulation of AXL mRNA expression measured after 48 hrs by RT-qPCR analysis. As to conditions: dose 10-40 µM. Type of test: cell-based. A general note: In qPCR the cycle at which signal appears reflects the starting amount.
For test [13], the target named is T1, RNA demethylase ALKBH5. Nature of the test: Inhibition of ALKBH5 in human MV4-11 cells assessed as down regulation of TACC3 expression measured after 48 hrs by Western blot analysis. Type of test: cell-based. The conditions noted are these: dose 5-40 µM. On the technique in general: Immunoblotting shows a protein as a band on a membrane.
In test [14] the target is T1, RNA demethylase ALKBH5. The test can be described thus: Inhibition of ALKBH5 in human MV4-11 cells assessed as down regulation of TACC3 mRNA expression measured after 48 hrs by RT-qPCR analysis. As to conditions: dose 10-40 µM. Type of test: cell-based.
The next test relates to MV4-11. Nature of the test: Antiproliferative activity against human MV4-11 cells assessed as reduction in cell viability measured after 72 hrs by CellTiter-Lumi luminescence assay. Type of test: functional, cell-based. The conditions noted are these: MV4-11, 72 h.

For the compound `O=C(O)c1ccccc1NC1=C(Cl)C(=O)N(c2ccc([N+](=O)[O-])c(Br)c2)C1=O`, the midpoint of inhibition at RNA demethylase ALKBH5 [1], the IC50, lay at 16.5 µM. On the same count and under the same terms, under `COC(=O)c1cccc(NC2=C(Cl)C(=O)N(c3ccc(Cl)c(Cl)c3)C2=O)c1` stands more than 200 µM; under `N#Cc1ccc(Br)cc1N1C(=O)C(Cl)=C(Nc2ccccc2C(=O)O)C1=O`, 69.1 µM. With `O=C(O)c1ccccc1NC1=C(Cl)C(=O)N(c2ccc(C(F)(F)F)c(Br)c2)C1=O`, the IC50 at RNA demethylase ALKBH5 [1] amounted to 16.9 µM; on RNA demethylase ALKBH5 [3], 25.9 µM. In addition, the inhibition entry on RNA demethylase ALKBH5 [2] is “Active”.

In the case of `COc1ccc(N2C(=O)C(Cl)=C(Nc3ccccc3C(=O)O)C2=O)cc1`, at RNA demethylase ALKBH5 [1], the 50% inhibitory concentration (IC50) was more than 200 µM. The same measure, in the same setting: for `Cc1cc(N2C(=O)C(Cl)=C(Nc3ccccc3C(=O)O)C2=O)ccc1C(F)(F)F` the value was more than 200 µM.

Turning to `O=C1C(Cl)=C(Nc2ccccc2)C(=O)N1c1ccc(Cl)c(Cl)c1`, the values for the thermal shift (ΔTm) at RNA demethylase ALKBH5 [4], at RNA demethylase ALKBH5 [5] and at RNA demethylase ALKBH5 [6] were -1.2 °C, -2.4 °C and -1.3 °C, respectively. For the same compound, the IC50 was 45.4 µM against RNA demethylase ALKBH5 [1] and less than 100 µM at RNA demethylase ALKBH5 [3]. Compound `N#Cc1ccc(N2C(=O)C(Cl)=C(Nc3ccccc3C(=O)O)C2=O)cc1` yielded a half-maximal inhibitory concentration (IC50) against RNA demethylase ALKBH5 [1] of more than 200 µM. In turn, `O=C(O)c1ccccc1NC1=C(Cl)C(=O)N(c2ccc(O)cc2)C1=O` returned an IC50 on RNA demethylase ALKBH5 [1] of more than 200 µM.

As to `Cc1ccc(Br)cc1N1C(=O)C(Cl)=C(Nc2ccccc2C(=O)O)C1=O`, the half-maximal inhibitory concentration (IC50) against RNA demethylase ALKBH5 [1] was more than 200 µM. `O=C(O)c1ccccc1NC1=C(Cl)C(=O)N(c2cccc(I)c2)C1=O` came in with an IC50 against RNA demethylase ALKBH5 [1] of 37 µM.

In the case of `CC(=O)c1ccc(N2C(=O)C(Cl)=C(Nc3ccccc3C(=O)O)C2=O)cc1`, at RNA demethylase ALKBH5 [1], inhibition was half-maximal at 34.1 µM (IC50). Still for that read-out and setting: for `O=C(O)c1ccccc1NC1=C(Cl)C(=O)N(c2ccccc2Cl)C1=O` the value was 47.8 µM; for `N#Cc1ccc(N2C(=O)C(Cl)=C(Nc3ccccc3C(=O)O)C2=O)cc1Br`, 18.7 µM; for `Cc1cc([N+](=O)[O-])c(Br)cc1N1C(=O)C(Cl)=C(Nc2ccccc2C(=O)O)C1=O`, more than 200 µM. The same measure, in the same setting: under `O=C(O)c1ccccc1NC1=C(Cl)C(=O)N(c2cccc(O)c2)C1=O` stands more than 200 µM.

On RNA demethylase ALKBH5 [1], `O=C(O)c1ccccc1NC1=C(Cl)C(=O)N(c2ccc(Br)c(Br)c2)C1=O` gave an IC50 of 17.4 µM. On the same count and under the same terms, under `Cc1ccc(C(=O)O)c(NC2=C(Cl)C(=O)N(c3ccc(Br)c(Br)c3)C2=O)c1` stands more than 200 µM; under `O=C(O)c1ccccc1NC1=C(Cl)C(=O)N(c2ccc(I)c(Br)c2)C1=O`, 9.57 µM; under `Cc1ccc(N2C(=O)C(Cl)=C(Nc3ccccc3C(=O)O)C2=O)cc1Br`, 32.9 µM.

Consider `C#Cc1cccc(N2C(=O)C(Cl)=C(Nc3ccccc3C(=O)O)C2=O)c1`, for which the half-maximal inhibitory concentration (IC50) against RNA demethylase ALKBH5 [1] is more than 200 µM. Still for that read-out and setting: for `O=C(O)c1ccc(F)cc1NC1=C(Cl)C(=O)N(c2ccc(Br)c(Br)c2)C1=O` the value was 5.34 µM.

`O=C(O)c1ccccc1NC1=C(Cl)C(=O)N(c2ccc(I)c(Cl)c2)C1=O`: the inhibition entry on RNA demethylase ALKBH5 [7], at RNA demethylase ALKBH5 [10], on RNA demethylase ALKBH5 [12], at RNA demethylase ALKBH5 [13] and on RNA demethylase ALKBH5 [14] was “Dose-dependent-effect” each time. Besides, the IC50 at RNA demethylase ALKBH5 [1] is 2.32 µM; in test [8] it was more than 250 µM; with MV4-11, 31.5 µM; at RNA demethylase ALKBH5 [3] it was 11.2 µM. Besides, the result at RNA demethylase ALKBH5 [9] was Active. For the same compound, the inhibition result (in test [11]; on RNA demethylase ALKBH5 [2]) was “Active” in each case. On to `O=C(O)c1ccccc1NC1=C(Cl)C(=O)N(c2ccc(Cl)c(Cl)c2)C1=O`, for which, at RNA demethylase ALKBH5 [1], inhibition was half-maximal at 20.6 µM (IC50).

Compound `NS(=O)(=O)c1cccc(NC2=C(Cl)C(=O)N(c3ccc(Cl)c(Cl)c3)C2=O)c1` registered a concentration for half-maximal inhibition (IC50) against RNA demethylase ALKBH5 [1] of more than 200 µM. For `N#Cc1cc(C(F)(F)F)ccc1N1C(=O)C(Cl)=C(Nc2ccccc2C(=O)O)C1=O`, at RNA demethylase ALKBH5 [1], the IC50 is more than 200 µM. Same read-out and setting: under `O=C(O)c1ccccc1NC1=C(Cl)C(=O)N(c2cccc(Cl)c2)C1=O` stands 29.6 µM; under `O=C(O)c1ccccc1NC1=C(Cl)C(=O)N(c2cccc(Br)c2)C1=O`, 21.3 µM.
